Test results: patent US20220133846A1, “NOVEL ANTIMICROBIAL COMPOUND AND USES THEREOF” (priority 2019, published 2022)
Converted amounts (≈) assume the structure as drawn. “And” between values parts separate entries of the source, which are not always exact repeats. Identical values can stand only once. “Also recorded” adds a separate entry of the source. Like-named read-outs stand apart in the source and are kept apart here.

Assays:
S. aureus or MRSA = test: Bacteriolytic activity (time-kill, OD600); type: cell-based; settings: twice the MIC, mid-exponential growth, over 20 hours
S. aureus (ATCC #29213) = type: cell-based
MDR S. aureus (CH-11) = test: Frequency of resistance (FoR) in vitro; type: cell-based
A. baumannii (CH-46) = test: Frequency of resistance (FoR) in vitro; type: cell-based
S. aureus = test: Thermal and chemical (pH) short-term stability, antibacterial activity remaining; type: physicochemical; settings: 4 to 60° C. for 18 hours, and 37° C. at pH 3.0-9.0
Description: Samples were clarified by centrifugation (16,000×g for 5 min) and soluble fractions were tested for antibacterial activity (against S. aureus) and examined by analytical HPLC.

[1] = Stability in human serum or plasma (MIC after incubation); type: in vitro ADME
Description: Stability studies were also performed in the presence of plasma or serum, or in whole blood.

[2] = Stability in whole blood and plasma (zone of inhibition, diffusion method); type: in vitro ADME, mouse; settings: for Whole blood ZOI: 400 μg/mL added to mouse whole blood; for Plasma fraction ZOI: plasma from treated whole blood
Description: The antimicrobial activity remaining in blood was measured by the diffusion method and expressed as the zone of inhibition (ZOI), proportional to the amount of activity remaining in blood (Table 11). Zone of inhibition (ZOI) is a zone of bacteria free agar plate after depositing 2 μL of a tested sample. In parallel, CMB001 treated blood was centrifuged to remove blood cells and the level of CMB001 was tested in the supernatant (plasma).

[3] = tested on: S. aureus NRS 384 (USA300-0114); test: Murine neutropenic thigh infection model; type: in vivo, mice
[4] = tested on: Staphylococcus haemolyticus strain JCM 2416
[5] = tested on: Enterococcus faecalis strain NBRC 100480
[6] = 1 mg/mL solution, pH 7.0, 10 minutes, centrifugation
[7] = IV 30 mg/kg; for AUC % Back Extrapolation to C0 / AUC % Extrapolation to infinity / tlast: blood; for Mean Concentration in blood: male CD1 mice
in vivo = settings: male, CD1, mouse, iv, 30 mg/kg; for clearance / MRT / Vd / half-life: blood; for clearance: CL/CL_F; for clearance / MRT / Vd: IV 30 mg/kg; for Vd: Vdss; for half-life: t1/2, IV 30 mg/kg
J774A mouse BALB/c cells = test: Toxicity to mammalian cells (cell viability); settings: up to 1,500 μg/mL, 24 hours
[8] = tested on: Staphylococcus aureus strain NBRC 100910; test: MIC against clinical isolates (Christiana Hospital); type: cell-based
[9] = tested on: Staphylococcus genus clinical strain CH-16 (16S ID n/a); test: microbe, parasite or virus in culture; type: cell-based; settings: clinical strain CH-16, drug resistance Y
[10] = tested on: Staphylococcus haemolyticus strain JCM 2416; test: microbe, parasite or virus in culture; settings: JCM2416
[11] = individual animals 1-3, 30 mg/kg

SMILES: C=C(NC(=O)[C@@H](NC(=O)[C@H](Cc1c[nH]cn1)NC(=O)[C@@H]1CS[C@@H](C)[C@H]2NC(=O)[C@H](C)NC(=O)[C@H](NC(=O)[C@H](CCC(N)=O)NC(=O)[C@@H](NC(=O)[C@H](Cc3ccccc3)NC(=O)[C@@H]3CS[C@@H](C)[C@@H](NC(=O)[C@@H](NC(=O)[C@@H]4CS[C@@H](C)[C@@H](NC(=O)[C@@H]5CSC[C@@H](NC(=O)[C@H](CCCCN)NC(=O)[C@@H](N)Cc6c[nH]c7ccccc67)C(=O)N[C@@H](CCC(N)=O)C(=O)NC(=C)C(=O)N[C@@H](Cc6ccccc6)C(=O)N5)C(=O)N5CCC[C@H]5C(=O)NCC(=O)N4)C(C)C)C(=O)NCC(=O)N[C@@H](C(C)C)C(=O)N[C@@H](CC(C)C)C(=O)N[C@@H](CCC(N)=O)C(=O)N/C(=C\C)C(=O)N3)[C@@H](C)CC)[C@H](C)SC[C@H](NC2=O)C(=O)N[C@@H](CC(N)=O)C(=O)N1)[C@@H](C)CC)C(=O)N[C@@H](CCCCN)C(=O)O [CMB001, WKAQX1FAX3PGAVX3GVLQX2AFIQX3AX3ANAHIX1K (SEQ ID NO: 1)]
- Bacteriolytic activity, change of OD600 (S. aureus or MRSA): marked decrease of OD600
- Frequency of resistance (FoR) (S. aureus (ATCC #29213); 2X MIC): 1.3 × 10^−8
- Frequency of resistance (FoR) (S. aureus (ATCC #29213); 3X MIC): 2.2 × 10^−9
- Frequency of resistance (FoR) (S. aureus (ATCC #29213); 4X MIC): 2.6 × 10^−9
- Frequency of resistance (FoR) (S. aureus (ATCC #29213); 5X MIC): 3.7 × 10^−10
- Frequency of resistance (FoR) (S. aureus (ATCC #29213); 10X MIC): <3.7 × 10^−10
- Frequency of resistance (FoR) (MDR S. aureus (CH-11); 2X MIC): 3.5 × 10^−9
- Frequency of resistance (FoR) (MDR S. aureus (CH-11); 3X MIC): 1.8 × 10^−9
- Frequency of resistance (FoR) (MDR S. aureus (CH-11); 4X MIC): 2.9 × 10^−8
- Frequency of resistance (FoR) (MDR S. aureus (CH-11); 5X MIC): 5.3 × 10^−10
- Frequency of resistance (FoR) (MDR S. aureus (CH-11); 10X MIC): <3.2 × 10^−10
- Frequency of resistance (FoR) (A. baumannii (CH-46); 2X MIC): 1.1 × 10^−7
- Frequency of resistance (FoR) (A. baumannii (CH-46); 3X MIC): 2.9 × 10^−9
- Frequency of resistance (FoR) (A. baumannii (CH-46); 5X MIC): <1 × 10^−11
- Frequency of resistance (FoR) (A. baumannii (CH-46); 10X MIC): <1 × 10^−11
- Antibacterial activity (MIC) and chemical integrity after incubation (S. aureus): retained its full antibacterial activity (MIC) and chemical integrity
- Antibacterial activity after incubation in human serum or plasma ([1]; 8-hour incubation at 37° C.): retained full antibacterial activity
- Antibacterial activity after incubation in human serum or plasma ([1]; 24-hour incubation): somewhat less active
- Whole blood ZOI ([2]; 10 minutes): 10 mm
- Whole blood ZOI ([2]; 60 minutes): 9 mm
- Whole blood ZOI ([2]; 120 minutes): 8 mm
- Whole blood ZOI ([2]; 180 minutes): 8 mm
- Whole blood ZOI ([2]; 240 minutes): 8 mm
- Adsorption onto blood cells ([2]; mouse blood, 400 μg/mL): not adsorbed onto blood cells
- Activity in whole blood ([2]; mouse blood, 400 μg/mL, 0-4 hours): retains full activity in whole blood
- Plasma fraction ZOI ([2]; 10 minutes): 11 mm
- Plasma fraction ZOI ([2]; 60 minutes): 9 mm
- Plasma fraction ZOI ([2]; 120 minutes): 8 mm
- Plasma fraction ZOI ([2]; 180 minutes): 8 mm
- Plasma fraction ZOI ([2]; 240 minutes): 7 mm
- Spiked plasma control ZOI ([2]; plasma spiked with CMB001, 10 minutes): 9 mm
- Spiked plasma control ZOI ([2]; plasma spiked with CMB001, 60 minutes): 11 mm
- Spiked plasma control ZOI ([2]; plasma spiked with CMB001, 120 minutes): 11 mm
- Spiked plasma control ZOI ([2]; plasma spiked with CMB001, 180 minutes): 11 mm
- Spiked plasma control ZOI ([2]; plasma spiked with CMB001, 240 minutes): 10 mm
- Bacterial burden compared to vehicle control ([3]; 0.5 to 10 mg/kg IV): dose dependent reduction of bacterial burden; also recorded: dose-dependent reduction of S. aureus in the thigh
- Thigh burden compared to vehicle-treated group ([3]; 5 to 30 mg/kg IV at 1, 8 and 15 hours post-infection): Significant reduction of thigh burden
- Survival to end of study ([3]; 5 to 30 mg/kg IV, 25 h post-infection): Most CMB001-treated animals survived until the end of the study
- Thigh burden relative to pre-treatment levels ([3]; all doses, 5 to 30 mg/kg IV): reduced below pre-treatment levels
- MIC [4]: 6.25 µg/mL (≈ 1.87 µM)
- MIC range (Acinetobacter baumannii): 3.4 to 27.7 µg/mL
- MIC90 [5]: 12.5 µg/mL (≈ 3.73 µM)
- MIC range [5]: 6.2 to 12.5 µg/mL
- Solubility relative to initial concentration [6]: > 96%
- Time at detectable levels in blood ([7]; LLOQ 500 ng/mL): at least 60 minutes
- AUC % Back Extrapolation to C0 ([7]; Mean/Median): 16%
- AUC % Extrapolation to infinity ([7]; Mean/Median): 29%
- tlast ([7]; Mean/Median): 1.00 h
- tlast ([7]; individual animals 1-3): 1.00 h
- AUC % Back Extrapolation to C0 [7, 11]: 23% and 12% and 13%
- AUC % Extrapolation to infinity [7, 11]: 26% and 22% and 41%
- Mean Concentration in blood ([7]; 2.00 hours, LLOQ 500 ng/mL): BLQ*
- Mean Concentration in blood ([7]; 4.00 hours, LLOQ 500 ng/mL): BLQ
- Mean Concentration in blood ([7]; 8.00 hours, LLOQ 500 ng/mL): BLQ
- Mean Concentration in blood ([7]; 24.00 hours, LLOQ 500 ng/mL): BLQ
- clearance (in vivo; Mean/Median): 170 mL/min/kg
- clearance (in vivo; individual animals 1-2): 166 mL/min/kg
- MRT (in vivo; Mean/Median): 40.2 min
- MRT (in vivo; individual animals 1-2): 42.6 min
- Vd (in vivo; Mean/Median): 6.8 L/kg
- Vd (in vivo; individual animals 1-2): 7 L/kg
- half-life (in vivo; Mean/Median): 32.4 ± 9 min
- half-life (in vivo; individual animals 1-2): 38.4 min
- level at 0.08 h (in vivo; whole blood): 4770 ng/mL
- level at 0.25 h (in vivo; whole blood): 2450 ng/mL
- level at 0.5 h (in vivo; whole blood): 1280 ng/mL
- level at 1 h (in vivo; whole blood): 916 ng/mL
- level at time molar at 0.08 h (in vivo; whole blood): 1420 nM
- level at time molar at 0.25 h (in vivo; whole blood): 733 nM
- level at time molar at 0.5 h (in vivo; whole blood): 383 nM
- level at time molar at 1 h (in vivo; whole blood): 274 nM
- Cell viability (J774A mouse BALB/c cells): did not reduce cell viability

SMILES: COc1cccc(OC)c1C(=O)N[C@@H]1C(=O)N2[C@@H]1SC(C)(C)[C@@H]2C(=O)O [Methicillin]
- MIC ([8]; NBRC100910, clinical strain CH-01, drug resistance N): 1 µg/mL (≈ 2.63 µM)
- MIC ([8]; NBRC100910, clinical strain CH-02, drug resistance N): 1 µg/mL (≈ 2.63 µM)
- MIC ([8]; NBRC100910, clinical strain CH-03, drug resistance N): 1 µg/mL (≈ 2.63 µM)
- MIC ([8]; NBRC100910, clinical strain CH-04, drug resistance N): 2 µg/mL (≈ 5.26 µM)
- MIC ([8]; NBRC100910, clinical strain CH-05, drug resistance N): 1 µg/mL (≈ 2.63 µM)
- MIC ([8]; NBRC100910, clinical strain CH-06, drug resistance N): 1 µg/mL (≈ 2.63 µM)
- MIC ([8]; NBRC100910, clinical strain CH-07, drug resistance N): 1 µg/mL (≈ 2.63 µM)
- MIC ([8]; NBRC100910, clinical strain CH-08, drug resistance N): 1 µg/mL (≈ 2.63 µM)
- MIC ([8]; NBRC100910, clinical strain CH-09, drug resistance N): 8 µg/mL (≈ 21 µM)
- MIC ([8]; NBRC100910, clinical strain CH-10, drug resistance N): 1 µg/mL (≈ 2.63 µM)
- MIC ([8]; NBRC100910, clinical strain CH-11, drug resistance Y): 32 µg/mL (≈ 84.1 µM)
- MIC ([8]; NBRC100910, clinical strain CH-12, drug resistance Y): 16 µg/mL (≈ 42.1 µM)
- MIC ([8]; NBRC100910, clinical strain CH-13, drug resistance Y): > 64 µg/mL
- MIC ([8]; NBRC100910, clinical strain CH-14, drug resistance Y): > 64 µg/mL
- MIC ([8]; NBRC100910, clinical strain CH-15, drug resistance Y): > 64 µg/mL
- MIC ([8]; NBRC100910, clinical strain CH-17, drug resistance Y): 16 µg/mL (≈ 42.1 µM)
- MIC ([8]; NBRC100910, clinical strain CH-20, drug resistance Y): 4 µg/mL (≈ 10.5 µM)
- MIC [9]: 64 µg/mL (≈ 168 µM)
- Frequency of resistance (FoR) (S. aureus (ATCC #29213); 2X MIC): <3.72 × 10^−10
- Frequency of resistance (FoR) (S. aureus (ATCC #29213); 3X MIC): <3.72 × 10^−10
- Frequency of resistance (FoR) (S. aureus (ATCC #29213); 4X MIC): <3.72 × 10^−10
- Frequency of resistance (FoR) (S. aureus (ATCC #29213); 5X MIC): <3.72 × 10^−10
- Frequency of resistance (FoR) (S. aureus (ATCC #29213); 10X MIC): <3.72 × 10^−10
- Frequency of resistance (FoR) (MDR S. aureus (CH-11); 2X MIC): resistant
- Frequency of resistance (FoR) (MDR S. aureus (CH-11); 3X MIC): resistant
- Frequency of resistance (FoR) (MDR S. aureus (CH-11); 4X MIC): resistant
- Frequency of resistance (FoR) (MDR S. aureus (CH-11); 5X MIC): resistant
- Frequency of resistance (FoR) (MDR S. aureus (CH-11); 10X MIC): resistant
- MIC [10]: 8 µg/mL (≈ 21 µM)
